{"source": "paper PMC6739424", "about": "“Osh Proteins Control Nanoscale Lipid Organization Necessary for PI(4,5)P2 Synthesis” (Molecular Cell, 2019)", "molecular_target": "T1, zPIP5K (zebrafish PIP5K1A, zPIP5K1Aα) (Danio rerio, UniProt Q503I3)", "T1 construct": "gene pip5k1aa; kinase domain aa 49-431, His-tagged (pET21b+), E. coli", "T1 sequence (Q503I3 49-431)": "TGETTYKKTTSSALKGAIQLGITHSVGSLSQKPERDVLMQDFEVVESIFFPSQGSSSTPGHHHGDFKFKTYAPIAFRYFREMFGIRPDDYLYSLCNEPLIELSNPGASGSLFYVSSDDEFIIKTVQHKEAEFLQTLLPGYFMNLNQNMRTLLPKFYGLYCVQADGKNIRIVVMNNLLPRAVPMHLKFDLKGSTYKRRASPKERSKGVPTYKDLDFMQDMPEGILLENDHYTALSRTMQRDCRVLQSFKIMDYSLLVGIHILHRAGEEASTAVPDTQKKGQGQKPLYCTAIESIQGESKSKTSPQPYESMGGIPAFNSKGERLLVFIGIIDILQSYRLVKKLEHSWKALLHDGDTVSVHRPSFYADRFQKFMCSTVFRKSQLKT", "experiment": "real-time liposome assay with NBD-PHPLCδ PI([…])P2 sensor", "assay_type": "biochemical", "conditions": "ATP 80 uM, 2 mM MgCl2, pH 7.5; liposomes without PS or sterol; allosteric sigmoidal fit", "data": [{"substance": "L-α-phosphatidylinositol-4-phosphate [bPI4P]", "values": [{"measurement": "apparent Km", "value": 6.2, "unit": "mol%"}]}]}
